Tests used:
[1] = Traction muscle relaxation model; assay type: in vivo, mice (Balb/c); conditions: dose 1 mg/kg
Experimental: (§1) Healthy mice (Balb/c) with weight ranging from 20 to 22 g and ages 9 to 10 weeks were used in this screening model. The grown animals were provided with standard laboratory conditions such as standard food and water ad libitum. The in vivo biological screening test was performed at the Department of Veterinary Medicine, College of Agriculture and Veterinary Medicine, Qassim University Buraydah, Saudi Arabia, as well as Swabi University, KP, Pakistan, according to published procedures.
A traction screening model was adapted to identify the relaxation of muscle for salicylalazine isolated from M. biflora according to the standard method. The traction model was considered by using metallic wires covered with rubber, and then the wires were linked with each other using a stand around 60 cm upstairs of the lab bench. The animals were distributed into different groups, with each group comprising six animals (n = 6). The various groups of animals were administered water, diazepam, and salicylalazine at different doses. After administration, all groups of animals were subjected to traction screening after 30, 60, and 90 min. […] Traction testing was repeatedly performed to calculate the muscle relaxant ability of salicylalazine as per the reported method.

Open field sedative test = assay type: in vivo, mice (Balb/c); conditions: dose 0.5 mg/kg, 30 min after administration
Experimental: as §1
The sedative potential of salicylalazine isolated from M. biflora was assessed as per the reported procedure. The animals were divided into different groups, as designated above. The apparatuses used in this screening contained an area of white wood with a 150 cm diameter bordered by stainless steel walls and was separated into 19 squares by black lines. Then, the open field apparatus was positioned inside the light and sound-reduced room. The different groups of animals were administered distilled water, diazepam, and salicylalazine at different doses. Thirty minutes after administration, all groups of animals were permitted to move from the center of the design box. […] Statistical calculations were performed by counting the number of lines crossed by every animal.

[2] = Inclined plane muscle relaxation model; assay type: in vivo, mice (Balb/c); conditions: dose 1 mg/kg
Experimental: as §1
An inclined plane screening procedure was adapted to identify the muscle relaxation effects of salicylalazine isolated from M. biflora according to a reported procedure. The inclined plane used in screening contained two plywood boards, and these boards were connected, where one board was at 60 0 from the base while the other one was aligned from the base. Various groups of animals were distributed into several groups; each group comprised six animals (n = 6). Animals in each group were administered water (10 mL/kg), standard drug (diazepam, 1 mg/kg), and salicylalazine at different doses of 2.5, 5, 10, 15, and 20 mg/kg, i.p. After various time intervals, such as 30, 60, and 90 min post-administration, animals were allowed on the higher part of the inclined plane for 30 s to drop or hang.

MDR2780AD = test: Anticancer MTT assay, MDR2780AD; assay type: cell-based; conditions: 24 h
HepG2 = test: Anticancer MTT assay, HepG2; assay type: cell-based; conditions: Homo sapiens, 24 h
Experimental: (§2) The MTT assay was used to assess the cytotoxicity of salicylalazine isolated from M. biflora as per the previously documented method. For the MTT assay, Gibco BRL was combined with 100 µg/mL of penicillin sodium salts, 10% FBS (Gibco), and sodium carbonate (2 mg/mL). The prepared medium was used to keep three human cancer cell lines: human hepatoma (HepG2), human A498, and renal NCI-h226 non-small cell lung). Mouse hepatocytes, including HepG2 and HepG-R, were planted in 96-well plates. The cell lines were preserved with salicylalazine (1.5–100 μM), hatched for 24 h, and then they were tracked using the MTT procedure^14. This method was used for all tested cell lines. The IC50 value of salicylalazine in different cell lines was calculated from the concentration-effect curves. The standard drug used in this experiment was paclitaxel.

NCI-H226 = test: Anticancer MTT assay, NCI-H226; assay type: cell-based; conditions: Homo sapiens, 24 h
Experimental: as §2

A498 = test: Anticancer MTT assay, A498; assay type: cell-based; conditions: Homo sapiens, 24 h
Experimental: as §2

Hot plate analgesic test = assay type: in vivo, mice (Balb/c); conditions: dose 10 mg/kg
Experimental: as §1
The analgesic effect of salicylalazine isolated from M. biflora was obtained with help of a hot plate according to the published method. The animals were distributed into different groups according to the previously reported method. A preliminary screening test was performed on the animals using a hot plate (Harvard apparatus) sustained at 55 ± 2 °C. […] Group I (positive control) was administered with the standard drug, while Group II (negative control) was administered with normal saline. The other groups of animals were administered with 2.5, 5, 10, 15, and 20 mg/kg (PO). […] To avoid tissue damage, a cut-off time of 30 s was used for every animal. The latency time was recorded for all groups (n = 6) at consistent intervals (30, 60, 90, and 120 min).

With `CN1C(=O)CN=C(c2ccccc2)c2cc(Cl)ccc21` [Diazepam, reference compound] the “Traction Test (%)” value ([1]; 30 min) was 100 ± 0.00%, the “Traction Test (%)” value ([1]; 60 min) was 100 ± 0.00% and the “Traction Test (%)” value ([1]; 90 min) was 100 ± 0.00%. The “No of Lines Crossed” value (Open field sedative test) was 9.01 ± 0.51, the “Inclined Plane Test (%)” value ([2]; 30 min) was 100 ± 0.00% and the “Inclined Plane Test (%)” value ([2]; 60 min) was 100 ± 0.00%. For the same compound, the “Inclined Plane Test (%)” value ([2]; 90 min) was 100 ± 0.00%.

`CC(=O)O[C@H]1C(=O)[C@@]2(C)[C@H]([C@H](OC(=O)c3ccccc3)[C@]3(O)C[C@H](OC(=O)[C@H](O)[C@@H](NC(=O)c4ccccc4)c4ccccc4)C(C)=C1C3(C)C)[C@]1(OC(C)=O)CO[C@@H]1C[C@@H]2O` [Paclitaxel, reference compound] showed an IC50 (MDR2780AD) of 0.18 ± 0.008 µM, an IC50 (HepG2) of 7.51 ± 0.3 µM and an IC50 (NCI-H226) of 61.29 ± 0.31 µM. It also gave an IC50 (A498) of 95.23 ± 0.23 µM.

With `COc1cccc(C2(O)CCCCC2CN(C)C)c1` (stereo not drawn) [Tramadol, reference compound] the “Latency time on hot plate” value (Hot plate analgesic test; 30 min) was 24.30 ± 0.07 s, the “Latency time on hot plate” value (Hot plate analgesic test; 60 min) was 25.90 ± 0.08 s and the “Latency time on hot plate” value (Hot plate analgesic test; 90 min) was 24.80 ± 0.14 s. The “Latency time on hot plate” value (Hot plate analgesic test; 120 min) was 24.68 ± 0.40 s.

Source: PMC9181852, “In Vivo and In Vitro Biological Evaluation and Molecular Docking Studies of Compounds Isolated from Micromeria biflora (Buch. Ham. ex D.Don) Benth” (Molecules, 2022)
